Read-outs that look alike come from different tables or passages of the source.
Columns and labels:
Test in all cases: biochemical
Conditions in all cases: fluorogenic MCA-peptide substrate, pH 7.5, room temperature
Recombinant human MMP-13 = target: T1, Recombinant human MMP-13 (Homo sapiens, UniProt P45452)
T1 construct: made in house; host or cells: baculovirus / insect cells
Protocol: (§1) Recombinant human MMP-1, MMP-2, MMP-9, MMP-13, and were used in this assay. These enzymes were prepared in the Assignee's es following usual laboratory procedures. Specifics for preparing and e enzymes can be found in the scientific literature describing these See, e.g., Enzyme Nomenclature (Academic Press, San Diego, Calif., d the citations therein).
The expressed proenzyme was first purified over a heparin agarose column, and then over a chelating zinc chloride column. The proenzyme was then activated by APMA for use in the assay.
(§2) The enzyme substrate was a methoxycoumarin-containing polypeptide having the following sequence:
(§3) MCA-ProLeuGlyLeuDpaAlaArgNH2
(§4) Here, “MCA” is methoxycoumarin and “Dpa” is 3-(2,4-dinitrophenyl)-L-2,3-diaminopropionyl alanine.
(§5) These solutions were then compared to a control (which contained equal amount of DMSO/buffer solution, but no hydroxamate compound) using Microfluor™ White Plates (Dynatech, Chantilly, Va.). Specifically, The MMPs were activated with APMA or trypsin. […] The control likewise was incubated at room temperature in separate plates with the MMP and 4 uM of the MMP substrate. […] Inhibition was measured as a reduction in fluorescent intensity as a function of inhibitor concentration using a Perkin Elmer (Norwalk, Conn.) L550 plate reader. The IC50's were then calculated from these measurements.

Recombinant human MMP-1 = target: T2, Recombinant human MMP-1 (Homo sapiens, UniProt P03956)
T2 construct: made in house; host or cells: transfected HT-1080 cells
T2 sequence (P03956 100-469): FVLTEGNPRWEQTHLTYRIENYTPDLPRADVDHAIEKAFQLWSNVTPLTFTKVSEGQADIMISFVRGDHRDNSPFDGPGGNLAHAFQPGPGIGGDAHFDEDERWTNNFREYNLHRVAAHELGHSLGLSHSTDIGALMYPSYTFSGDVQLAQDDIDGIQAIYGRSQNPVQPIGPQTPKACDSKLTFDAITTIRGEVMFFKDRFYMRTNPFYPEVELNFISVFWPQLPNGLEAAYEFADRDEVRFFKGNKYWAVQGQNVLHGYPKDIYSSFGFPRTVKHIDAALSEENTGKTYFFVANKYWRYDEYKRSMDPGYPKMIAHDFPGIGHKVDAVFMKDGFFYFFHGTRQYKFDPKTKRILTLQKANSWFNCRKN
Protocol: as §1
The MMP-1 was obtained from MMP-1 expressing transfected HT-1080 cells provided by Dr. Harold Welgus of Washington University in St. Louis, Mo. The MMP-1 was activated using 4-aminophenylmercuric acetate (APMA), and then purified over a hydroxamic acid column.
as §2, §3, §4, §5

Recombinant human MMP-2 = target: T3, Recombinant human MMP-2 (Homo sapiens, UniProt P08253)
T3 construct: made in house
T3 sequence (P08253 110-660): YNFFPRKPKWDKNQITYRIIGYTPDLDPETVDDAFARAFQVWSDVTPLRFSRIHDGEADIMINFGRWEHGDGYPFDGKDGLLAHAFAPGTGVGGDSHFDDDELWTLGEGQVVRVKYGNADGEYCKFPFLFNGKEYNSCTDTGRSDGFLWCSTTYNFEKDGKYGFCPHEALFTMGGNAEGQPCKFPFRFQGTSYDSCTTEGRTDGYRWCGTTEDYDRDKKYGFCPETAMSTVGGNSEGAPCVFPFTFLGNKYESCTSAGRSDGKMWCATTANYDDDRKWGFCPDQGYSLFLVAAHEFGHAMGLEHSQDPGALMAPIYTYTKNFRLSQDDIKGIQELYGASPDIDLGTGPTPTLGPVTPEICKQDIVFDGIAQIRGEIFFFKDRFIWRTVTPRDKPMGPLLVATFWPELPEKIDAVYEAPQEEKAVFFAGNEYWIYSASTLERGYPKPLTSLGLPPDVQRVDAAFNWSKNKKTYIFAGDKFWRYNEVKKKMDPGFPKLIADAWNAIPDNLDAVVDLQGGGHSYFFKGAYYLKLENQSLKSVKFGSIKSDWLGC
Protocol: as §1
The MMP-2 was obtained from MMP-2 expressing transfected cells provided by Dr. Gregory Goldberg of Washington University.
as §2, §3, §4, §5

**Q.** Which IC50 (Recombinant human MMP-13; read-out: MMP-13 IC50) does the source give for `Cc1ccc(C(=O)C2CCN(c3ccc(S(=O)(=O)C4(C(=O)NO)CCN(S(C)(=O)=O)CC4)cc3)CC2)cc1` [Example 207] here?
**A.** 1.1 nM

**Q.** What about the IC50 (Recombinant human MMP-1) of the same compound?
**A.** > 10 µM

**Q.** What about the IC50 (Recombinant human MMP-2; read-out: MMP-2 IC50) of the same compound?
**A.** 4.4 nM

**Q.** Which results are given for `C#CCN1CCC(C(=O)NO)(S(=O)(=O)c2ccc(N3CCC(C(=O)c4ccc(N(C)CC)cc4)CC3)cc2)CC1` [Example 174]?
**A.** IC50 (Recombinant human MMP-13; read-out: MMP-13 IC50): 1.1 nM; IC50 (Recombinant human MMP-1): > 10 µM; IC50 (Recombinant human MMP-2; read-out: MMP-2 IC50): 1070 nM

**Q.** What does the source list for `COCCN1CCC(C(=O)NO)(S(=O)(=O)c2ccc(N3CCC(C(=O)c4ccc(CCC5CCCC5)cc4)CC3)cc2)CC1` [Example 204]?
**A.** IC50 (Recombinant human MMP-13; read-out: MMP-13 IC50): 0.2 nM; IC50 (Recombinant human MMP-1): > 10 µM; IC50 (Recombinant human MMP-2; read-out: MMP-2 IC50): 1050 nM

**Q.** How did the IC50 (Recombinant human MMP-13; read-out: MMP-13 IC50) turn out when `COCCN1CCC(C(=O)NO)(S(=O)(=O)c2ccc(N3CCC(C(=O)c4ccc(CC5CCC5)cc4)CC3)cc2)CC1` [Example 201] was run?
**A.** 0.2 nM

**Q.** And the IC50 (Recombinant human MMP-1)?
**A.** > 10 µM

**Q.** And the IC50 (Recombinant human MMP-2; read-out: MMP-2 IC50)?
**A.** 6320 nM

**Q.** `C#CCN1CCC(C(=O)NO)(S(=O)(=O)c2ccc(N3CCC(C(=O)c4cccc(OC)c4)CC3)cc2)CC1` [Example 155] was tested. Which IC50 (Recombinant human MMP-13; read-out: MMP-13 IC50) did it give?
**A.** 1.4 nM

**Q.** What about the IC50 (Recombinant human MMP-1) of the same compound?
**A.** > 10 µM

**Q.** What about the IC50 (Recombinant human MMP-2; read-out: MMP-2 IC50) of the same compound?
**A.** 43.8 nM

**Q.** How did the IC50 (Recombinant human MMP-13; MMP-13 IC50(nM)) turn out when `O=C(C1CCN(c2ccc(S(=O)(=O)C3(C(=O)NO)CCOCC3)cc2)CC1)N1CCN(c2ccccc2F)CC1` [Example 12] was run?
**A.** 6.7 nM

**Q.** And the IC50 (Recombinant human MMP-1)?
**A.** > 10 µM

**Q.** And the IC50 (Recombinant human MMP-2; MMP-2 IC50(nM))?
**A.** 1400 nM

**Q.** Which results are given for `COCCN1CCC(C(=O)NO)(S(=O)(=O)c2ccc(N3CCC(C(=O)c4ccc(CN(C)C)s4)CC3)cc2)CC1` [Example 223]?
**A.** IC50 (Recombinant human MMP-13; read-out: MMP-13 IC50): 2.5 nM; IC50 (Recombinant human MMP-1): > 10 µM; IC50 (Recombinant human MMP-2; read-out: MMP-2 IC50): 80.4 nM

**Q.** Which IC50 (Recombinant human MMP-13; read-out: MMP-13 IC50) does the source give for `C#CCN1CCC(C(=O)NO)(S(=O)(=O)c2ccc(N3CCC(C(=O)c4ccc5ccccc5c4)CC3)cc2)CC1` [Example 175] here?
**A.** 0.7 nM

**Q.** What about the IC50 (Recombinant human MMP-1) of the same compound?
**A.** > 10 µM

**Q.** And the IC50 (Recombinant human MMP-2; read-out: MMP-2 IC50)?
**A.** 137 nM

**Q.** Which IC50 (Recombinant human MMP-13; read-out: MMP-13 IC50) does the source give for `Cc1ccc(C(=O)C2CCN(c3ccc(S(=O)(=O)C4(C(=O)NO)CCN(CC5CC5)CC4)cc3)CC2)cc1` [Example 210] here?
**A.** 1.1 nM

**Q.** What about the IC50 (Recombinant human MMP-1) of the same compound?
**A.** > 10 µM

**Q.** And the IC50 (Recombinant human MMP-2; read-out: MMP-2 IC50)?
**A.** 13.1 nM

**Q.** Which IC50 (Recombinant human MMP-13; read-out: MMP-13 IC50) does the source give for `CC(C)COc1ccc(C(=O)C2CCN(c3ccc(S(=O)(=O)C4(C(=O)NO)CCN(C5CC5)CC4)cc3)CC2)cc1` [Example 216] here?
**A.** 1.5 nM

**Q.** And the IC50 (Recombinant human MMP-1)?
**A.** > 10 µM

**Q.** And the IC50 (Recombinant human MMP-2; read-out: MMP-2 IC50)?
**A.** 46.4 nM

**Q.** How did the IC50 (Recombinant human MMP-13; read-out: MMP-13 IC50) turn out when `COCCN1CCC(C(=O)NO)(S(=O)(=O)c2ccc(N3CCC(C(=O)c4ccc(Cl)cc4)CC3)cc2)CC1` [Example 119] was run?
**A.** 1 nM

**Q.** And the IC50 (Recombinant human MMP-1)?
**A.** > 10 µM

**Q.** And the IC50 (Recombinant human MMP-2; read-out: MMP-2 IC50)?
**A.** 200 nM

**Q.** `CC(C)N1CCN(C(=O)C2CCN(c3ccc(S(=O)(=O)C4(C(=O)NO)CCOCC4)cc3)CC2)CC1` [Example 15] was tested. Which IC50 (Recombinant human MMP-13; read-out: MMP-13 IC50) did it give?
**A.** 28 nM

**Q.** What about the IC50 (Recombinant human MMP-1) of the same compound?
**A.** > 10 µM

**Q.** What about the IC50 (Recombinant human MMP-2; read-out: MMP-2 IC50) of the same compound?
**A.** 5500 nM

**Q.** How did the IC50 (Recombinant human MMP-13; read-out: MMP-13 IC50) turn out when `COCCN1CCN(C(=O)C2CCN(c3ccc(S(=O)(=O)C4(C(=O)NO)CCOCC4)cc3)CC2)CC1` [Example 18] was run?
**A.** > 10000 nM

**Q.** And the IC50 (Recombinant human MMP-1)?
**A.** > 10 µM

**Q.** And the IC50 (Recombinant human MMP-2; read-out: MMP-2 IC50)?
**A.** > 10000 nM

**Q.** For `COCCN1CCC(C(=O)NO)(S(=O)(=O)c2ccc(N3CCC(C(=O)c4ccc(CC(C)C)cn4)CC3)cc2)CC1` [Example 253], which IC50 (Recombinant human MMP-13; read-out: MMP-13 IC50) is on record?
**A.** 1.7 nM

**Q.** And the IC50 (Recombinant human MMP-1)?
**A.** > 10 µM

**Q.** And the IC50 (Recombinant human MMP-2; read-out: MMP-2 IC50)?
**A.** 38.7 nM

**Q.** Which results are given for `CCN1CCC(C(=O)NO)(S(=O)(=O)c2ccc(N3CCC(C(=O)c4ccc(CCC(C)C)c(F)c4)CC3)cc2)CC1` [Example 249]?
**A.** IC50 (Recombinant human MMP-13; read-out: MMP-13 IC50): 5.8 nM; IC50 (Recombinant human MMP-1): > 10 µM; IC50 (Recombinant human MMP-2; read-out: MMP-2 IC50): > 10000 nM

**Q.** How did the IC50 (Recombinant human MMP-13; read-out: MMP-13 IC50) turn out when `CC(C)CCOc1ccc(C(=O)C2CCN(c3ccc(S(=O)(=O)C4(C(=O)NO)CCN(C5CC5)CC4)cc3)CC2)cc1` [Example 217] was run?
**A.** 1.3 nM

**Q.** And the IC50 (Recombinant human MMP-1)?
**A.** > 10 µM

**Q.** What about the IC50 (Recombinant human MMP-2; read-out: MMP-2 IC50) of the same compound?
**A.** 270 nM

**Q.** Which IC50 (Recombinant human MMP-13; read-out: MMP-13 IC50) does the source give for `C=CCN1CCC(C(=O)NO)(S(=O)(=O)c2ccc(N3CCC(C(=O)c4ccc5ccccc5c4)CC3)cc2)CC1` [Example 160] here?
**A.** 0.4 nM

**Q.** And the IC50 (Recombinant human MMP-1)?
**A.** > 10 µM

**Q.** What about the IC50 (Recombinant human MMP-2; read-out: MMP-2 IC50) of the same compound?
**A.** 198 nM

**Q.** With `CC(=O)c1ccc(N2CCN(C(=O)C3CCN(c4ccc(S(=O)(=O)C5(C(=O)NO)CCOCC5)cc4)CC3)CC2)cc1` [Example 24] as the compound, how does the IC50 (Recombinant human MMP-13; read-out: MMP-13 IC50) read?
**A.** 6.7 nM

**Q.** And the IC50 (Recombinant human MMP-1)?
**A.** > 10 µM

**Q.** What about the IC50 (Recombinant human MMP-2; MMP-2 IC50(nM)) of the same compound?
**A.** 700 nM

From patent US20040209914A1, “Aromatic sulfone hydroxamic acids and their use as protease inhibitors” (priority 2000, published 2004)
